Consider three compounds from patent EP4725956A1, “MODIFIED POLYPEPTIDE AND USE THEREOF IN FIELD OF ANALGESIA” (Nanjing Anji Biotechnology Co., Ltd., priority 2023, dated 2024).

Positions of bridges follow the written chain, without caps; N, C: chain ends. Non-standard residues stand in square brackets, D forms with d. Residues, ends and D or L forms follow the SMILES beside them. Bip = N[C@@H](Cc1ccc(-c2ccccc2)cc1)C(=O)O; Hyp = O=C(O)[C@@H]1C[C@@H](O)CN1; Nle = CCCC[C@H](N)C(=O)O; Orn = NCCC[C@H](N)C(=O)O; Aib = CC(C)(N)C(=O)O

Data set [1] can be described thus: In vitro plasma stability and predicted half-life (HPLC main peak area, Example 3). It is filed as in vitro ADME. Particulars: human plasma (EDTA anticoagulant), 37°C, sampled up to 24 h, predicted half-life calculated with Winolin. On the procedure:
The modified peptides in this study were designed with non-natural amino acid substitutions at certain non-essential positions to enhance peptide stability and improve druggability. Peptides were dissolved in deionized water to 2 mg/mL, then diluted with acetonitrile to 1 mg/mL and filtered through an organic membrane. 200 µL of the filtrate was transferred to an LC vial as the peptide control. 300 µL of human plasma (comprising EDTA as anticoagulant, Nanjing Senbeijia Biotechnology Co., Ltd., Lot No. SBJ-P-HU011-100 mL) was mixed with 300 µL acetonitrile, centrifuged at 4°C and 12,000 rpm for 5 minutes. The supernatant was filtered through an organic membrane, and 200 µL of the filtrate was transferred to an LC vial as the plasma blank control. For peptide samples, 10 mg of peptide was weighed mixed with 5 mL of human plasma and vortexed thoroughly. 300 µL of peptide-containing plasma was mixed with 300 µL acetonitrile, centrifuged at 4°C and 12,000 rpm for 5 minutes, and the supernatant was filtered through an organic membrane. 200 µL of the filtrate was transferred to an LC vial as the 0 min sample. Peptide-containing plasma was incubated in a 37°C water bath, and samples at other time points were collected using the same procedure as the 0 min sample. For peptides AJ003 and AJ003-1, the sampling time points were 0 min, 5 min, 10 min, 20 min, 30 min, 1 h, 2 h, 4 h, 6 h, 10 h, 12 h, and 24 h. For modified peptides AJ003-34, AJ003-35, AJ003-36, AJ003-37, AJ003-38, AJ003-39, AJ003-40, AJ003-41, and AJ003-42, the time points were 0 min, 10 min, 30 min, 1 h, 4 h, 6 h, 10 h, 12 h, and 24 h. All peptide sample series were analyzed by HPLC, recording the changes in main peak areas over plasma incubation time. Predicted in vitro half-lives were calculated using the pharmacokinetic software Winolin. Due to the presence of tautomers, AJ003 peak areas were difficult to integrate accurately over time. AJ003-1 is an analog of AJ003 in which the threonine at position 5 is substituted with D-threonine; its sequence differs from AJ003 by only one amino acid configuration. […] The in vitro plasma half-lives of modified peptides AJ003-34, AJ003-35, AJ003-36, AJ003-37, AJ003-38, AJ003-39, AJ003-40, AJ003-41, and AJ003-42 were 61.9 h, 45.3 h, 65.3 h, 71.0 h, 26.7 h, 43.0 h, 84.0 h, 30.0 h, and 61.4 h, respectively.

A short description of data set [2]: Plasma stability of AJ003-40 and AJ003-24 (HPLC, Example 4). It counts as in vitro ADME. Particulars: human plasma; for main peak area: 2 mg/mL. On the procedure:
Peptides AJ003-40 and AJ003-24 were separately weighed and mixed with human plasma to prepare solutions at 2 mg/mL. 300 µL of peptide-containing plasma was mixed with 300 µL acetonitrile, centrifuged at 4°C and 12,000 rpm for 5 minutes, and the supernatant was filtered through an organic membrane. 200 µL of the filtrate was transferred to an LC vial as the 0 h sample. Peptide-containing plasma was incubated in a 37°C water bath. For AJ003-40, 300 µL of plasma was sampled at 24 h, mixed with 300 µL acetonitrile, centrifuged, filtered, and 200 µL of the filtrate was transferred to an LC vial as the 24 h sample. For AJ003-24, 300 µL of plasma was sampled at 22 h, processed similarly, and 200 µL of the filtrate was transferred to an LC vial as the 22 h sample.

In data set [3] the test system is mouse oxaliplatin acute chemotherapy pain model. The experiment in a line: Mouse oxaliplatin chemotherapy pain model, multiple peptides (Example 8). It is filed as in vivo. Particulars: single dose 3 mg/kg s.c., 0.5-8 h post-dose, n=3. As to the method: Oxaliplatin was dissolved in 5% glucose solution to a concentration of 1 mg/mL. For model induction, each male C57 mouse (Shanghai Bikai Keyi Biotechnology Co., Ltd.) received a single intraperitoneal injection of oxaliplatin at 10 mg/kg. Mice in the negative control or blank control group received 5% glucose solution. Approximately one week after model induction, mechanical pain thresholds of the mice were measured three times per mouse, and the average value was calculated. Mice were then randomly assigned to groups based on their pain thresholds. Drug administration was carried out according to the dosing schedule shown in Table 7, with a single dose per mouse. Mechanical pain thresholds were measured at 0.5, 1, 2, 4, 6, and 8 h post-dose. […] Table 7 Dosing Scheme for Oxaliplatin Chemotherapy Pain Model in Mice

The target of the next data set is T1, α9 nAChR (Homo sapiens, UniProt Q9UGM1).
T1 construct: inferred from capture on NTA sensor
In words: BLI (biolayer interferometry) affinity of peptides to α9 nAChR. Particulars: NTA sensor, α9 nAChR 5 µg/mL, peptide 1.372-1000 nM in PBS. It counts as binding. An excerpt:
BLI is a label-free technology that converts optical interference signals occurring on the surface of BLI biosensors into real-time response signals. By monitoring the molecular binding process in real time, the system determines association rate constants (ka or kon), dissociation rate constants (kd or koff), and initial binding rates, and calculates affinity (KD) by fitting analysis. Here are the specific procedures: NTA sensors (Sartorius) were placed in a pre-wetting tray, which was then positioned in a black 96-well plate with 200 µL PBS per well. The NTA sensors were pre-wetted for at least 15 minutes. The target protein α9 nAChR was diluted in PBS to 5 µg/mL, with 200 µL added per well. Test peptides were dissolved in PBS and serially diluted threefold, with concentrations from high to low as 1000 nM, 333.3 nM, 111.1 nM, 37.04 nM, 12.35 nM, 4.115 nM, and 1.372 nM, with an additional well with PBS only as a zeroconcentration control. After equilibrating the instrument baseline, the NTA sensor was used to immobilize the target protein α9 nAChR. Once immobilization was complete, the baseline was re-equilibrated, followed by a 5-minute association and a 5-minute dissociation phase. Affinity measurements of the test peptides were conducted sequentially using the above procedure. The procedure for measuring peptide affinity to α7 nAChR was similar, except that the α7 nAChR concentration was 20 µg/mL. Tables 2 and 3 show the BLI-determined affinities of alanine-scan peptide analogs with target proteins, which identified sites on the parent peptide suitable for modification. Subsequently, single-site non-natural amino acid substituted peptides were evaluated by BLI for target protein affinity. Finally, multi-site combinatorial modified peptides were measured for affinity by BLI, leading to the selection of high-affinity peptides for further screen and drug development potential. Table 2 Test Results for Affinity of Modified Peptides to α9 nAChR

T1 sequence (Q9UGM1 23-479): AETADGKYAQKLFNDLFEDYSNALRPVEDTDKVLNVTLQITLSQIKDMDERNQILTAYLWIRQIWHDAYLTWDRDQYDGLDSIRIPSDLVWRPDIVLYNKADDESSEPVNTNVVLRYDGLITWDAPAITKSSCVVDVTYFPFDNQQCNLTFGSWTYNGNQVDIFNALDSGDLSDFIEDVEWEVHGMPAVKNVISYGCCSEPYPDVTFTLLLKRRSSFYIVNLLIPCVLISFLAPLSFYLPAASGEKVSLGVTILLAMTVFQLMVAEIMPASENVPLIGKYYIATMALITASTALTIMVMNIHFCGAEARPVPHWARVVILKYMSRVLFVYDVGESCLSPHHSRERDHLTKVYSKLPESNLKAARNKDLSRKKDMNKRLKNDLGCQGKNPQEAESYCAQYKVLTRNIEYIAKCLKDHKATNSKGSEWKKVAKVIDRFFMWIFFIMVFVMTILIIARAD

As for `CCCC[C@H](NC(=O)[C@@H](NC(=O)[C@H]1CSSC[C@H](NC(=O)[C@H](CO)NC(=O)CN)C(=O)N[C@@H](CO)C(=O)N[C@H]([C@H](C)O)C(=O)N2C[C@H](O)C[C@H]2C(=O)N2C[C@H](O)C[C@H]2C(=O)N[C@@H](CO)C(=O)N1)C(C)C)C(=O)N[C@@H](Cc1c[nH]c2ccccc12)C(=O)N[C@@H](CCCN)C(N)=O` [AJ003-40, GSCS-(D-Thr)-Hyp-Hyp-S-(D-Cys)-V-Nle-W-Orn-NH2 (3,9 disulfide bond)] (H-GSCS[dT][Hyp][Hyp]S[dC]V[Nle]W[Orn]-NH2; disulfide 3-9), the half-life at 2 mg/mL in data set [1] is 84 h. The main peak area came out at 15149.38 in data set [2] (0 h) and 11829.51 in data set [2] (37°C, 24 h). For the same compound, in data set [2] (37°C, 24 h, read-out: degradation), the metabolised at 24 h, 2 mg/mL came out at 21.9%.
Regarding `CCCC[C@H](NC(=O)[C@@H](NC(=O)[C@H]1CSSC[C@H](NC(=O)[C@H](CO)NC(=O)CN)C(=O)N[C@@H](CO)C(=O)N[C@H]([C@H](C)O)C(=O)N2C[C@H](O)C[C@H]2C(=O)N2C[C@H](O)C[C@H]2C(=O)NC(C)(C)C(=O)N1)C(C)C)C(=O)N[C@@H](Cc1ccc(-c2ccccc2)cc1)C(=O)N[C@@H](CCCN)C(N)=O` [AJ003-36, GSCS-(D-Thr)-Hyp-Hyp-Aib-(D-Cys)-V-Nle-Bip-Orn-NH2 (3,9 disulfide bond)] (H-GSCS[dT][Hyp][Hyp][Aib][dC]V[Nle][Bip][Orn]-NH2; disulfide 3-9), the half-life at 2 mg/mL in data set [1] is 65.3 h. Besides, the “analgesic activity against oxaliplatin-induced chemotherapy pain (mechanical pain threshold compared with the model group)” value in data set [3] was “effective analgesic activity”.
The compound `CC(C)C[C@H](NC(=O)[C@@H](NC(=O)[C@H]1CSSC[C@H](NC(=O)[C@H](CO)NC(=O)CN)C(=O)N[C@@H](CO)C(=O)N[C@@H]([C@@H](C)O)C(=O)N2CCC[C@H]2C(=O)N2CCC[C@H]2C(=O)N[C@@H](CO)C(=O)N1)C(C)C)C(=O)N[C@@H](Cc1ccc(O)cc1)C(=O)N[C@@H](CO)C(=O)O` [AJ003, GSCSTPPS-(D-Cys)-VLYS (disulfide bond between positions 3 and 9)] (H-GSCSTPPS[dC]VLYS-OH; disulfide 3-9) yielded a dissociation constant (Kd) on α9 nAChR of 4.48 nM.
